What was measured:
EcCARS = target: T1, EcCARS (Escherichia coli, UniProt P21888); experiment: HPE-IAM labeling LC-ESI-MS/MS of CysSSH formed, Michaelis-Menten fit; format: biochemical; details: persulfide synthase reaction; 50 mM HEPES pH 7.5, 25 mM KCl, 15 mM MgCl2, 37 °C, 30 s
T1 construct: gene cysS
T1 sequence (P21888 1-461): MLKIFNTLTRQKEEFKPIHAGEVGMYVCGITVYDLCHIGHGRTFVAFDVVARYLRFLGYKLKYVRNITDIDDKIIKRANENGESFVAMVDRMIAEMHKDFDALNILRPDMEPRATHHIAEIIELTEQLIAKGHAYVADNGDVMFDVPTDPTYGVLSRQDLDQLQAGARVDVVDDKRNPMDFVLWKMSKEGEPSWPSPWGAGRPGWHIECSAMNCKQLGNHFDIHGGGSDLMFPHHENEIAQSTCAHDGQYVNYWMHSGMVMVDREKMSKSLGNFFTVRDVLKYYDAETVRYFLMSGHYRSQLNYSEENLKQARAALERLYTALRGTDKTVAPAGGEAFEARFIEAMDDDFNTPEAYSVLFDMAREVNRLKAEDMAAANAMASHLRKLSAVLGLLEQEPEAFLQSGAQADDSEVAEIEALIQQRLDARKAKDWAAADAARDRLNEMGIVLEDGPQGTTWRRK

mouse CARS1 = target: T2, mouse CARS1 (Mus musculus, UniProt Q9ER72); experiment: HPE-IAM labeling LC-MS/MS of CysSSH and CysSSSH; format: biochemical; details: 25 µM L-cysteine, 100 µM PLP, 37 °C, 2 h
T2 sequence (Q9ER72 2-831): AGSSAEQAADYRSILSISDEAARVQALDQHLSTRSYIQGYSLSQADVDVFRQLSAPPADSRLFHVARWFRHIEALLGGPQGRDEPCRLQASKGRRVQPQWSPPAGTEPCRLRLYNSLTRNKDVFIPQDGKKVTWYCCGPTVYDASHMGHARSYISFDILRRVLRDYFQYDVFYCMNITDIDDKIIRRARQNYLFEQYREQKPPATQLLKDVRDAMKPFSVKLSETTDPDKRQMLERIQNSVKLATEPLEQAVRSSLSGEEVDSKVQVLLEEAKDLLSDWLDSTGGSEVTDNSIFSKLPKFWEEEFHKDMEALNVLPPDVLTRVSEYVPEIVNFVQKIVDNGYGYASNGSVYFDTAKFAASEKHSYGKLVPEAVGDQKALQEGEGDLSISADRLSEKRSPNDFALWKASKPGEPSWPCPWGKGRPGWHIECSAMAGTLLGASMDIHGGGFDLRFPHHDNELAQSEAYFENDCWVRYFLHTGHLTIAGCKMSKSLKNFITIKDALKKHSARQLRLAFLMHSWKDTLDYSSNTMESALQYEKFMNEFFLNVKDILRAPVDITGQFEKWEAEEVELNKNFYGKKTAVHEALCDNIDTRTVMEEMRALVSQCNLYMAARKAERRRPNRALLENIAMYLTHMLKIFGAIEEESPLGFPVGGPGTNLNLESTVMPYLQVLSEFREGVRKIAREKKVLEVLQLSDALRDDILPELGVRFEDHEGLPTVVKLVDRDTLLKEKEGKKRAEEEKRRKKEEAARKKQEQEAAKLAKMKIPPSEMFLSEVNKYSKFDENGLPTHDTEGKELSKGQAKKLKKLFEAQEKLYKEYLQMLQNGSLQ

human CARS2 = target: T3, human CARS2 (Homo sapiens, UniProt Q9HA77); experiment: DNPH derivatization, LC-ESI-MS/MS of bound PLP; format: binding; details: 37 °C, 1 h, 0-100 µM PLP
T3 sequence (Q9HA77 1-564): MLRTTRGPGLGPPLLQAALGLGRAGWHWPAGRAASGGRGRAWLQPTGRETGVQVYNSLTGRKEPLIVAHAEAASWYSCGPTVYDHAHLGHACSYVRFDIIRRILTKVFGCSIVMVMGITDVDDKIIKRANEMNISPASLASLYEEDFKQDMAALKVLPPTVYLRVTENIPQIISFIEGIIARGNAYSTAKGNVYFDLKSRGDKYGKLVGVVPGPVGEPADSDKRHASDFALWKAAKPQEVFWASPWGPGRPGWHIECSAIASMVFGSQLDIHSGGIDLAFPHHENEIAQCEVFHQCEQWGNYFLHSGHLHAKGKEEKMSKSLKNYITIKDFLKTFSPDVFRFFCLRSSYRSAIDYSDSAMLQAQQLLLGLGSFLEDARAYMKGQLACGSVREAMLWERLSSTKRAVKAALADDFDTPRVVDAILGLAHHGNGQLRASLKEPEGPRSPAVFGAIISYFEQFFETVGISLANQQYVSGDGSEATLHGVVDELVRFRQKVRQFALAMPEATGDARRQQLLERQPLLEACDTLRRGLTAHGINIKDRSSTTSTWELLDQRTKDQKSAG

SMILES | Km (EcCARS) | HPE-IAM labeling LC-MS/MS of CysSSH and CysSSSH (mouse CARS1) | DNPH derivatization, LC-ESI-MS/MS of bound PLP (human CARS2)
N[C@@H](CS)C(=O)O [L-cysteine] | EcCARS is very efficient in producing CysSSH |  | 
Cc1ncc(COP(=O)(O)O)c(C=O)c1O [pyridoxal phosphate] |  | PLP-dependent CysSSH and CysSSSH biosynthesis by mouse CARS1 and human CARS2 | Precisely quantitative analysis for PLP bound to human CRAS2
